SMILES strings stand for the structures. Where “and” joins values, the source holds several entries; their conditions need not be identical. Equal values may be shown once.

This assay has as its system HeLa-AD8 Env / CEM-CCR5 cell fusion, luciferase. As to the kind of experiment: inhibitors of clade B AD8 Env fusion, dose response, cell-based, cherry-pick (AID 652062).
The term AC50 denotes the midpoint of the concentration-response curve, whichever way the signal moves. For `C[C@H](CO)N1C[C@H](C)[C@H](CN(C)S(=O)(=O)c2ccccc2)Oc2ncc(/C=C/c3ccccc3)cc2C1=O`, the AC50 is 23.8 µM and 3.07 µM. The same measure for `COC(=O)C1(C(=O)OC)C[C@H](c2ccc(OC)cc2)N(Cc2ccccc2OC)[C@@H]1c1cccs1`: 2.49 µM and 11.3 µM; for `O=C(C[C@H]1C[C@H]2c3cc(NC(=O)c4ccc5c(c4)OCO5)ccc3O[C@H]2[C@H](CO)O1)NCc1ccc(Oc2ccccc2)cc1`: 15.1 µM.

(Values after PubChem BioAssay AID652062 (Broad Institute, 2013).)
